Assay results from PubChem BioAssay AID1552 (Sanford-Burnham Center for Chemical Genomics, 2009).
Calls of active or inactive are those of the source. No rule for the calls is given here.

The compounds below were run against Ubiquitin-conjugating enzyme E2 N (Homo sapiens) (UniProt P61088) (assay: UBE2N binders by NMR, biophysical, purified protein (AID 1552)). Settings: NMR binding to purified UBE2N.
Ubiquitin-conjugating enzyme E2 N (Homo sapiens), sequence (P61088 whole entry, looked up): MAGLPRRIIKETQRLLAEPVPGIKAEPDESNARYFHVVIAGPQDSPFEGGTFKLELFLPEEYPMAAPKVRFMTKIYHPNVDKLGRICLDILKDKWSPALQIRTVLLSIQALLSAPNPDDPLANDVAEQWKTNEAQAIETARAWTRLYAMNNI
Cc1sc2nc[nH]c(=S)c2c1C was tested, and the Kd was > 4 mM (inactive).
CCCCCCCCCCCC1=C(O)C(=O)C=C(O)C1=O was tested, and the Kd was > 4 mM (inactive).
With CON(C)C(=O)Nc1ccc(Cl)cc1 the Kd was > 4 mM (inactive).
CC1(C)CC[C@]2(C(=O)O)CC[C@]3(C)C(=CCC4[C@@]5(C)CC[C@H](O)[C@@](C)(CO)C5CC[C@]43C)C2C1 (some centres not stated) was tested, and the Kd was > 4 mM (inactive).
CC(=O)N(C)Cc1nc2ccccc2n1C was tested, and the Kd was > 4 mM (inactive).
For c1ccc(-n2nnnc2-n2cnc3ccccc32)cc1, the Kd was > 4 mM (inactive).
In the case of O=C(NN1C(=O)c2ccccc2C1=O)c1cccs1, the Kd is reported as > 4 mM (inactive).
In the case of Cc1ccc2nc(SCCC#N)nc(C)c2c1, the Kd is reported as > 4 mM (inactive).
In the case of OC12CC3CC(C1)C1(NCCS1)C(C3)C2 (configuration not stated), the Kd is reported as > 4 mM (inactive).
In the case of O=C(Nc1ccccc1F)c1ccncc1, the Kd is reported as > 4 mM (inactive).
In the case of O=C1CCC(c2cccs2)=NN1, the Kd is reported as > 4 mM (inactive).
CC(C)C(C)/C=C/C(C)C1CCC2C3=CC=C4CC(O)CCC4(C)C3CCC21C (configuration not stated) was tested, and the Kd was > 4 mM (inactive).
Nc1ccc(-c2csnn2)cc1 was tested, and the Kd was > 4 mM (inactive).
With Cc1ccc(C(=O)NCCO)c(Cl)c1 the Kd was > 4 mM (inactive).
In the case of CN1CCC(NC(=O)c2ccccc2[N+](=O)[O-])CC1, the Kd is reported as > 4 mM (inactive).
For O=C1CCCC2C3CC(CN12)[C@@H]1CCCCN1C3 (some centres not stated), the Kd was > 4 mM (inactive).
Cc1ccc(=O)[nH]c1 was tested, and the Kd was > 4 mM (inactive).
For c1coc(-c2nc(-c3ccncc3)no2)c1, the Kd was > 4 mM (inactive).
In the case of Cc1cc(NC(=O)CCCn2cnc([N+](=O)[O-])n2)no1, the Kd is reported as > 4 mM (inactive).
OCc1ccc2c(c1)OCCCO2 was tested, and the Kd was > 4 mM (inactive).
In the case of Cc1c(-c2ccc(F)cc2)[n+](=O)c2c(n1[O-])CCC2, the Kd is reported as > 4 mM (inactive).
Cc1ccc(N2NC(=O)CC2=O)cc1C was tested, and the Kd was > 4 mM (inactive).
O=C(CC1NCCNC1=O)Nc1ccccc1 (configuration not stated) was tested, and the Kd was > 4 mM (inactive).
CC(=O)Nc1ccc(Cl)c(C(N)=O)c1 was tested, and the Kd was > 4 mM (inactive).
With COc1cc2c(cc1-c1cc3cc4ccoc4cc3oc1=O)OCO2 the Kd was > 4 mM (inactive).
In the case of c1ccc2c(NC3=NCCS3)cccc2c1, the Kd is reported as > 4 mM (inactive).
For Cc1cc(C)nc(/N=C(/N)N2CCC(C(N)=O)CC2)n1, the Kd was > 4 mM (inactive).
In the case of COC(=O)[C@@]1(C)CCC[C@]2(C)c3ccc(O)c(C(C)C)c3CCC12 (some centres not stated), the Kd is reported as > 4 mM (inactive).
In the case of CC(=O)Nc1nc(C)nc(-c2ccccc2)c1C(C)=O, the Kd is reported as > 4 mM (inactive).
For CC(=O)OCc1cc(=O)n(C)c(=O)n1C, the Kd was > 4 mM (inactive).
In the case of Cc1cc(N)n(-c2ccccc2)n1, the Kd is reported as > 4 mM (inactive).
For Cc1cccc(-n2c(N)cc(=O)[nH]c2=S)c1, the Kd was > 4 mM (inactive).
Cc1c(-c2ccccc2)[n+](=O)c(-c2ccco2)c(C)n1[O-] was tested, and the Kd was > 4 mM (inactive).
O=C(O)Cn1c(C(F)(F)F)nc2ccccc21 was tested, and the Kd was > 4 mM (inactive).
In the case of O=C(O)C1CC(=O)N(Cc2ccco2)C1 (configuration not stated), the Kd is reported as > 4 mM (inactive).
In the case of C=C[C@H]1CN2CC[C@H]1C[C@@H]2[C@@H](O)c1ccnc2ccc(OC)cc12, the Kd is reported as > 4 mM (inactive).
O=C1C=CC(=O)N1c1ccc(N2CCOCC2)cc1 was tested, and the Kd was > 4 mM (inactive).
In the case of Cc1n[nH]c(=S)n1-c1ccc(C(=O)O)cc1, the Kd is reported as > 4 mM (inactive).
In the case of O=C1NNC(=O)C2C3c4ccccc4C(c4ccccc43)C12 (configuration not stated), the Kd is reported as > 4 mM (inactive).
Cc1cc(SCC(=O)c2ccccc2)nc(=O)[nH]1 was tested, and the Kd was > 4 mM (inactive).
In the case of COc1cc2c(cc1OC)[C@@H]1C(=O)c3ccc(OC)c(CC=C(C)C)c3O[C@@H]1CO2, the Kd is reported as > 4 mM (inactive).
NC(Cn1ccc(=O)c(O)c1)C(=O)O (configuration not stated) was tested, and the Kd was > 4 mM (inactive).
For O=C(O)c1cc2ccccc2cn1, the Kd was > 4 mM (inactive).
With CC(=O)Nc1ccc(NC(=O)c2ccncc2)cc1 the Kd was > 4 mM (inactive).
Cc1occc1C(=O)Nc1sccc1C(N)=O was tested, and the Kd was > 4 mM (inactive).
For Nc1ncnc2nc[nH]c12, the Kd was > 4 mM (inactive).
For Nc1ncnc2c1ncn2C1O[C@H](COP(=O)(O)O)[C@@H](O)[C@H]1O (some centres not stated), the Kd was > 4 mM (inactive).
In the case of O=C(c1ccco1)N1CCCN(C(=O)c2ccco2)CC1, the Kd is reported as > 4 mM (inactive).
COc1cccc(/C=N/N=C2/NC(=O)CS2)c1 was tested, and the Kd was > 4 mM (inactive).
NC(=O)C1CCN(C(=O)c2ccccc2F)CC1 was tested, and the Kd was > 4 mM (inactive).
O=C(O)CCSc1nc2ccccc2s1 was tested, and the Kd was > 4 mM (inactive).
In the case of O=c1c(O)c(-c2ccccc2)oc2ccc3occc3c12, the Kd is reported as > 4 mM (inactive).
In the case of CC(C)NC(=O)c1nc2ccccc2s1, the Kd is reported as > 4 mM (inactive).
For Nc1ccc(F)cc1F, the Kd was > 4 mM (inactive).
With CN1C(=O)C2CC=C(Cl)CC2C1=O (configuration not stated) the Kd was > 4 mM (inactive).
For CCC(C)C(=O)O[C@H]1[C@H](O)C2C(CN3CC(C)CCC3[C@@]2(C)O)C2C[C@]34O[C@]5(O)C(OC(=O)C(C)(O)C(C)O)CC[C@@]3(C)C5C(OC(C)=O)[C@@H](OC(C)=O)C4[C@@]21O (some centres not stated), the Kd was > 4 mM (inactive).
In the case of C=C1C2CC[C@@]3(C)[C@H](c4ccoc4)OC(=O)C[C@]13O[C@H]1C[C@H](OC(C)=O)C(C)(C)[C@H](CC(=O)OC)[C@@]21C, the Kd is reported as > 4 mM (inactive).
With CCC(=O)Nc1cccc(NC(C)=O)c1 the Kd was > 4 mM (inactive).
In the case of [O-][n+]1c2ccccc2[n+]([O-])c2cc(O)ccc21, the Kd is reported as > 4 mM (inactive).
COc1cc2c(cc1OC)C(=O)OC2 was tested, and the Kd was > 4 mM (inactive).
In the case of CC[C@@H]1[C@@H](O)N2C3C[C@H]1C1C(O)[C@]4(C[C@@H]12)c1ccccc1N(C)[C@@H]34 (some centres not stated), the Kd is reported as > 4 mM (inactive).
In the case of Cn1c(-c2ccccc2F)n[nH]c1=S, the Kd is reported as > 4 mM (inactive).
For Cc1nc(NC(=O)c2cccnc2)ccc1Br, the Kd was > 4 mM (inactive).
For COc1cc2c(cc1O)[C@@H](Cc1ccc(O)cc1)[N+](C)(C)CC2, the Kd was > 4 mM (inactive).
C/C(O)=c1/sc2cc(C)nc(=N)n2c1=O was tested, and the Kd was > 4 mM (inactive).
In the case of Cn1c(O)c(C2=NC(=S)NC2=O)c2ccccc21, the Kd is reported as > 4 mM (inactive).
With Nc1nncn1C(=O)c1c(Cl)cccc1Cl the Kd was > 4 mM (inactive).
CN1C2CC(OC(=O)[C@H](CO)c3ccccc3)C[C@H]1[C@H]1OC21 (some centres not stated) was tested, and the Kd was > 4 mM (inactive).
With CCCCN1C(=O)N(C)C2NC(=O)NC21 (configuration not stated) the Kd was > 4 mM (inactive).
COC(=O)N1CCN(c2ccc(C(C)=O)cc2)CC1 was tested, and the Kd was > 4 mM (inactive).
CC(C)NC(=S)N1CCN(S(C)(=O)=O)CC1 was tested, and the Kd was > 4 mM (inactive).
With COc1ccc(C(O)c2nccn2C)cc1 (configuration not stated) the Kd was > 4 mM (inactive).
With CC1(C)C2CC[C@]3(C)C(C(=O)C=C4[C@H]5C[C@@](C)(C(=O)O)CC[C@]5(C)CC[C@]43C)[C@@]2(C)CC[C@@H]1O (some centres not stated) the Kd was > 4 mM (inactive).
For O=C1C2C3CCC(O3)C2C(=O)N1c1ccccc1 (configuration not stated), the Kd was > 4 mM (inactive).
In the case of NC(=O)C1CCN(c2ncnc(N)c2[N+](=O)[O-])CC1, the Kd is reported as > 4 mM (inactive).
In the case of CC(=O)N1CCc2ccccc2C1CC(=O)O (configuration not stated), the Kd is reported as > 4 mM (inactive).
With NC(=O)C1CCN(S(=O)(=O)c2ccccc2)CC1 the Kd was > 4 mM (inactive).
With NCCc1nc2ccccc2[nH]1 the Kd was > 4 mM (inactive).
c1ccc2[nH]c(-c3cscn3)nc2c1 was tested, and the Kd was > 4 mM (inactive).
In the case of OCc1ccc(Oc2ccccc2)nc1, the Kd is reported as > 4 mM (inactive).
With N#Cc1cnn(Cc2ccc(Cl)cc2)c1N the Kd was > 4 mM (inactive).
With COc1ccc(C2(C)NC(=O)NC2=O)cc1 (configuration not stated) the Kd was > 4 mM (inactive).
With c1ccc(-c2noc(-c3ccco3)n2)nc1 the Kd was > 4 mM (inactive).
With O=C(O)[C@H](O)[C@@](O)(Cc1ccc(O)cc1)C(=O)O the Kd was > 4 mM (inactive).
With O=C(Nc1ccccc1)NC1CCS(=O)(=O)C1 (configuration not stated) the Kd was > 4 mM (inactive).
Nc1nc2c3ccccc3nc(Cc3ccccc3)n2n1 was tested, and the Kd was > 4 mM (inactive).
For O=c1ccn(Cc2ccccc2)c(=O)n1Cc1ccccc1, the Kd was > 4 mM (inactive).
For Cc1cc(C(=O)NCc2cccnc2)no1, the Kd was > 4 mM (inactive).
For CS(=O)(=O)Nc1cc2c3c(c1)CCN3C(=O)CC2, the Kd was > 4 mM (inactive).
For COCC(=O)OCn1nnc2ccccc2c1=O, the Kd was > 4 mM (inactive).
With CN(C)C(=S)Nc1ccccc1N1CCOCC1 the Kd was > 4 mM (inactive).
In the case of CCN(CC)C(=O)c1n[nH]c(=O)c2ccccc12, the Kd is reported as > 4 mM (inactive).
For C=CCN1CC[C@]23c4c5ccc(O)c4OC2C(=O)CC[C@@]3(O)[C@H]1C5 (some centres not stated), the Kd was > 4 mM (inactive).
For N/N=C1\CCCc2c1no[n+]2[O-], the Kd was > 4 mM (inactive).
With CC(=O)NN1C(=O)c2cccc3cccc(c23)C1=O the Kd was > 4 mM (inactive).
O=C(O)c1ccc2c(c1)OCCO2 was tested, and the Kd was > 4 mM (inactive).
In the case of O=C(c1ccccc1)N1CCN(c2ccccc2F)CC1, the Kd is reported as > 4 mM (inactive).
Cc1nc(-c2ccc(NS(C)(=O)=O)cc2)cs1 was tested, and the Kd was > 4 mM (inactive).
Nc1ccc2c(c1)CCCC2=O was tested, and the Kd was > 4 mM (inactive).
COc1ccc(NC(=O)c2ccc[n+]([O-])c2)cc1 was tested, and the Kd was > 4 mM (inactive).
For c1ccc(-c2noc(-c3ccc4c(c3)OCO4)n2)nc1, the Kd was > 4 mM (inactive).
With O=c1ccc2cc(O)c(O)cc2o1 the Kd was > 4 mM (inactive).
In the case of COc1ccc(N/C(N)=N\c2nc(C)cc(C)n2)cc1, the Kd is reported as > 4 mM (inactive).
For O=C(Cc1cccs1)Nc1ccon1, the Kd was > 4 mM (inactive).
In the case of CN1CCN(C(=O)c2ccccc2N)CC1, the Kd is reported as > 4 mM (inactive).
Nc1cc(=O)[nH]c(=O)n1Cc1ccco1 was tested, and the Kd was > 4 mM (inactive).
For Cc1ccc(C(=O)N2CCC(C(=O)O)CC2)cc1, the Kd was > 4 mM (inactive).
For Cc1ccccc1NC(=O)/C=C\C(N)=O, the Kd was > 4 mM (inactive).
For Cc1cc(C(=O)Nn2cnnc2)cs1, the Kd was > 4 mM (inactive).
In the case of Cc1ccc(NC(=O)CN2C(=O)CSC2=O)cc1, the Kd is reported as > 4 mM (inactive).
For Cc1nn2c(nc1=O)SCC2(O)c1ccccc1 (configuration not stated), the Kd was > 4 mM (inactive).
With Cc1cc(C(=O)O)n[nH]1 the Kd was > 4 mM (inactive).
O=C(c1cnsn1)N1CCN(c2ccccn2)CC1 was tested, and the Kd was > 4 mM (inactive).
COCc1cc(C)nc2sc(C(=O)OC)c(N)c12 was tested, and the Kd was > 4 mM (inactive).
With CC(=O)NC(c1ccccc1)c1cccnc1 (configuration not stated) the Kd was > 4 mM (inactive).
With COc1ccccc1C(=O)Nc1ccccn1 the Kd was > 4 mM (inactive).
For C[C@]12CCC3C(CC[C@H]4C[C@@H](O)CC[C@]34C)C1CCC2=O (some centres not stated), the Kd was > 4 mM (inactive).
